# Reference: PMC5400507, “The neuropeptide F/nitric oxide pathway is essential for shaping locomotor plasticity underlying locust phase transition” (eLife, 2017)
# What was measured:
# Type in all cases: in vivo, Locusta migratoria
# NOS = assay: Total NOS activity in locust brains (NOS Kit); settings: n = 4 samples
# Experimental: (§1) An enzyme-linked immunosorbent assay (ELISA) kit (R and D Systems, Inc.) was used to detect the relative cAMP level in locust brains. For NO content determination, Total Nitric Oxide Assay Kit (Beyotime) was used. Because NO molecules are unstable, the total NO levels in all test groups were assessed by detecting the content of nitrate and nitrite. The NOS Kit (Nanjing Jiancheng Bioengineering Institute) was used to detect the total NOS activity in locust brains. Protein concentrations were measured using the BicinChoninic Acid (BCA) Protein Assay Kit (Thermo). All of these three measurements were performed according to the manufacturer’s instructions. Each measurement was from at least four biological replicates (12–16 locusts/replicate). Data were normalized to the protein concentration.
# NO = NO level in locust brains (Total Nitric Oxide Assay Kit); settings: n = 4 samples
# Experimental: as §1
# locusts = assay: Behavioral arena assay (Pgreg, TDM, TDMV, attraction index); settings: for attraction index: 2 hr after drug injection (L-NAME in G-phase, SNAP in S-phase) or 48 hr after NOS knockdown in G-phase; for behavioral phase state (Pgreg) / total distance moved (TDM) / total duration of movement (TDMV): n ≥ 23
# Experimental: The concentrations of peptides and drugs that were used were determined according to described methods ([[…] and Yates, 2007]; [Van […] et al., 2013b]). […] Working solutions of different concentrations (0.05, 0.5 and 2.5 μg/μl) were injected into the hemolymph in the heads of fourth-instar locusts using a microinjector (2 μl/locust). The arena behavioral assay was conducted 1 hr, 2 hr, and 4 hr following injection. […] Working solution (100 μM) was microinjected into the heads of G-phase locusts (2 μl/locust). SNAP was dissolved with DMSO to prepare 100 mM stock solution. Working solution (200 μM) was microinjected into the heads of S-phase locusts (2 μl/locust). Locust behaviors were tested 2 hr after drug injection. The behavioral assay was performed in a rectangular Perspex arena (40 cm × 30 cm × 10 cm) containing three chambers. The left chamber (7.5 cm × 30 cm × 10 cm) contained 30 fourth-instar G-phase locusts as a stimulus group, and the right chamber was empty (7.5 cm × 30 cm × 10 cm). Locusts behaviors were recorded for 300 s by an EthoVision video tracking system and analyzed according to the binary logistic regression model constructed in our previous work ([Guo et al., 2011]). Details are as follow: […] AI = total duration in stimulus area - total duration in the opposite of stimulus area; this parameter represents the extent to which the tested animals are attracted by the stimulus group. TDMV (total duration of movement) and TDM (total distance moved) indicate the locomotor activity levels. Pgreg indicates the probability that a locust is considered gregarious. […] In the behavioral assay, 16-35 locusts were tested for each treatment according to the sample size reported in previous studies ([Ott et al., 2012]; [Ma et al., 2011]). […] Two hours later, SNAP (200 μM, 2 μl/locust) was injected into the heads of the experimental insects. Control insects were treated with an equal amount of saline. The injected locusts were then raised under the gregarious condition and subjected to behavioral analysis 2 hr after injection of SNAP. For S-phase locusts, […] or […] was microinjected into the brains of fourth-instar S-phase insects. […] The insects treated with dsGFP were used as a control.
# [1] = G-phase locust brains, 2 hr after L-NAME injection or 48 hr after NOS knockdown
# [2] = G-phase locusts, 2 hr after injection of L-NAME (100 μM, 2 μl/locust) or 48 hr after NOS knockdown
# [3] = S-phase locusts pre-injected with dsNPFR or dsNPYR, 2 hr after L-NAME injection, n ≥ 16
# [4] = S-phase locust brains, 2 hr after SNAP injection
# [5] = G-phase locusts pre-injected with NPF1a or NPF2 peptide, SNAP 200 μM, 2 μl/locust 2 hr later, tested 2 hr after SNAP, n ≥ 24
# [6] = S-phase locusts, 2 hr after injection of SNAP (200 μM, 2 μl/locust)
Compound,NOS activity (NOS; [1]),NO levels (NO; [1]),attraction index (locusts),behavioral phase state (Pgreg) (locusts; [2]),total distance moved (TDM) (locusts; [2]),total duration of movement (TDMV) (locusts; [2]),Pgreg increase induced by NPFR or NPYR knockdown (locusts; [3]),total distance moved increase induced by NPFR or NPYR knockdown (locusts; [3]),total duration of movement increase induced by NPFR or NPYR knockdown (locusts; [3]),NOS activity (NOS; [4]),NO levels (NO; [4]),"Pgreg, rescue (locusts; [5])","total distance moved, rescue (locusts; [5])","total duration of movement, rescue (locusts; [5])",behavioral phase state (Pgreg) (locusts; [6]),total distance moved (TDM) (locusts; [6]),total duration of movement (TDMV) (locusts; [6])
"COC(=O)[C@@H](N)CCCNC(N)=N[N+](=O)[O-] [L-NAME, N-Nitro-L-arginine Methyl Ester]",significantly reduced,significantly reduced,did not change the attraction index,S-phase-like behavior,strongly suppressed,strongly suppressed,robustly abolished the increase,robustly abolished the increase,robustly abolished the increase,,,,,,,,
S-nitroso-N-acetyl-penicillamine [SNAP],,,did not change the attraction index,,,,,,,without affecting NOS activity,increased,robust recovery,robust recovery,robust recovery,pushed locust behavioral change from S-phase to G-phase state,enhanced,enhanced
